The record followed here is BindingDB's records for doi:10.1021/jm00007a018 (Laboratorios Menarini, 1995).

Bounds are passed on as bounds.

As usually defined, the IC50 is the point on the concentration scale where inhibition reaches its midpoint. Read a high IC50 as weaker potency.

For the experiment, the target named is Platelet-activating factor receptor (Oryctolagus cuniculus). Put plainly: […] was measured as the IC50 for aggregation of washed rabbit platelets after incubation for 30 min at 37 C.
Regarding `CCCCCCCCCCCCCCCCC(=O)COCC(COP(=O)([O-])OCC[N+](C)(C)C)OC` (centres undefined) [2-methoxy-3-(2-oxooctadecyloxy)propyl-2-trimethylammonioethylphosphorate], the IC50 is > 200 µM.

In the case of `CCCCCCCCC(CCCCCCOCC(COP(=O)([O-])OCC[N+](C)(C)C)OC)c1ccccc1` (centres undefined) [2-methoxy-3-(7-phenylpentadecyloxy)propyl-2-trimethylammonioethylphosphorate], the IC50 is > 200 µM.

The molecule `CCCCCCC(CCCCCC)CCCCCCCCCCCOCC(COP(=O)([O-])OCC[N+](C)(C)C)OC` (centres undefined) [3-(12-hexyloctadecyloxy)-2-methoxypropyl-2-trimethylammonioethylphosphorate] registered an IC50 of 1.5 µM.

Regarding `CCCCCCCCCCCC(C)CCCCCCOCC(COP(=O)([O-])OCC[N+](C)(C)C)OC` (centres undefined) [2-methoxy-3-(7-methyloctadecyloxy)propyl-2-trimethylammonioethylphosphorate], the IC50 was > 200 µM.

On to `CCCCCCCCCCCC(=O)CCCCCCOCC(COCCCCC[N+](C)(C)C)OC` (centres undefined) [{5-[2-Methoxy-3-(7-oxo-octadecyloxy)-propoxy]-pentyl}-trimethyl-ammonium; bromide], for which the IC50 was > 200 µM.

On to `CCCCCCCCCCCC(CCCCCC)CCCCCCOCC(COP(=O)([O-])OCC[N+](C)(C)C)OC` (centres undefined) [2-methoxy-3-(7-hexyloctadecyloxy)propyl-2-trimethylammonioethylphosphorate], for which the IC50 is > 200 µM.

As to `COC(COCCCCCCCCCCCCCCCCc1ccccc1)COP(=O)([O-])OCC[N+](C)(C)C` (centres undefined) [2-methoxy-3-(16-phenylhexadecyloxy)propyl-2-trimethylammonioethylphosphorate], the IC50 amounted to 20 µM.

As to `COC(COCCCCCCCCCCC(=O)c1ccccc1)COP(=O)([O-])OCC[N+](C)(C)C` (centres undefined) [2-methoxy-3-(11-oxo-11-phenylundecyloxy)propyl-2-trimethylammonioethylphosphorate], the IC50 is > 200 µM.

`COC(COCCCCCCCCCCC(O)c1ccccc1)COP(=O)([O-])OCC[N+](C)(C)C` (centres undefined) [3-(11-hydroxy-11-phenylundecyloxy)-2-methoxypropyl-2-trimethylammonioethylphosphorate]: the IC50 was > 200 µM.
